Our source for the inhibition and melting point values is US20070244108A1 (priority 2004, published 2007).

The target of one data set is T1, Human 11β HSD1 (Homo sapiens, UniProt P28845).
T1 construct: human hepatic microsomes were obtained from XenoTech, product H0610/Lot 0210078; tissue XenoTech H0610/Lot 0210078; host or cells: human liver (hepatic microsomes)
The data set is described as follows: 11β HSD1 cortisol radioimmunoassay (RIA), human hepatic microsomes. It counts as biochemical. The following applies: 10 μM compound; typical sd ± 5%, N=2. Here is the method:
Standard Operating Procedure for the 11β-Hydroxysteroid Dehydrogenase Type 1 cortisol Radioimmunoassay (11β HSD1 Cortisol RIA).
Prepare 10 mM stock solutions in 100% DMSO at 100 times the required assay concentration. Dilute into assay buffer 1 in 25. Also dilute neat DMSO 1 in 25 into assay buffer for controls.
Dilute this 1 in 50 into assay buffer.
Mix these 3 solutions 1:1:1 to make a solution of sufficient volume for 25 μl additions to each sample.
Dilute stock 20 mg/ml solution 1 in 100 with assay buffer.
Dilute stock antibody solution to 17 μg/ml in antibody binding buffer.
To a u-bottom polypropylene 96 well plate add:
25 μl compound dilution or diluted DMSO to controls, NSB's and blanks
10 μl […] in DMSO (enzyme stop solution) to blanks
25 μl substrate mixture to all samples
50 μl diluted microsomes to all samples
Incubate plate for 30 min at 37° C. shaking
Add 10 μl enzyme stop solution to all wells except the blanks
Add 100 μl antibody solution to all wells except the NSB's, add antibody binding buffer to these wells
Incubate at 37° C. for 1 h
Add 50 μl/well charcoal solution and mix with an 8-channel pipette (4-5 aspirations)
Centrifuge at 4° C., 2000×g for 15 min
Transfer 100 μl supernatant into an Optiplate, also add 25 μl substrate mixture to 2 empty wells to indicate counting efficiency
Add 200 μl Microscint-40 to all wells and count on a Topcount
The 11β HSD1 enzyme assay was carried out following the standard operating procedure described above in u-bottom polypropylene 96 well plates or 1.5 ml Eppendorf tubes as indicated for each experiment. Subsequent to stopping the enzyme reaction, 100 μl antibody prepared in buffer 3 unless otherwise indicated was added to test samples and 100 μl buffer 3 was added to the NSB samples. […] Aliquots of the supernatant (100 μl) were transferred to an Optiplate and counted on the Topcount in 150-200 μl Microscint 40. In some experiments, aliquots of supernatant were transferred to scintillation vials and counted on the Tricarb LSC in 5 ml Ultima Gold scintillant.

T1 sequence (P28845 whole entry): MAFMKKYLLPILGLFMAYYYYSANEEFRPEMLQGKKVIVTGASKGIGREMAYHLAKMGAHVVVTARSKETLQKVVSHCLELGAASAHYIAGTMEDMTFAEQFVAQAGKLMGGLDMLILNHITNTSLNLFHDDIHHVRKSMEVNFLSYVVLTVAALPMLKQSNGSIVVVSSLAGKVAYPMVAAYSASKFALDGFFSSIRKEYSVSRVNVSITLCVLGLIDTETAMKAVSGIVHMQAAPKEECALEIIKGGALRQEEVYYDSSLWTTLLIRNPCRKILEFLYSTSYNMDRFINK

For `CCCc1ccc(S(=O)(=O)NCCc2ncc[nH]2)cc1` [STX578, N-[2-(4H-Imidazol-2-yl)-ethyl]-4-propylbenzenesulfonamide], on Human 11β HSD1, the inhibition at 10 µM was more than 35%. Regarding `CCCc1ccc(S(=O)(=O)NN2CCOCC2)cc1` [STX586, N-Morpholin-4-yl-4-propyl-benzenesulfonamide], the melting point fell in the range of 150 to 152 °C. The compound further yielded an inhibition at 10 µM against Human 11β HSD1 of more than 35%. The like results for `CCCc1ccc(S(=O)(=O)NN2CCN(C)CC2)cc1` [STX551, N-(4-Methylpiperazin-1-yl)-4-propylbenzenesulfonamide] were, in that order, 153 to 154 °C and more than 35%.

One may read the inhibition as the share of the control response that was lost under treatment. A high value points to a response far below the control. Broadly, the melting point is the temperature of the solid-liquid transition.
